Laboratory results: article PMC6017645, “Substrate Binding Switches the Conformation at the Lynchpin Site in the Substrate-Binding Domain of Human Hsp70 to Enable Allosteric Interdomain Communication” (Molecules : A Journal of Synthetic Chemistry and Natural …, 2018)

Legend:
[1] = molecular target: T1, SBD(∆CDE)-y of human Hsp70 (Homo sapiens, UniProt P0DMV8, L542Y); test: Binding kinetics estimated from simulation of NMR exchange
T1 construct: We solved the solution structure of SBD(∆CDE) comprising residues 382–564; His6 (N, cleaved yes); made in house; host or cells: E. coli BL21(DE3)
T1 sequence (P0DMV8 382-564 L542Y): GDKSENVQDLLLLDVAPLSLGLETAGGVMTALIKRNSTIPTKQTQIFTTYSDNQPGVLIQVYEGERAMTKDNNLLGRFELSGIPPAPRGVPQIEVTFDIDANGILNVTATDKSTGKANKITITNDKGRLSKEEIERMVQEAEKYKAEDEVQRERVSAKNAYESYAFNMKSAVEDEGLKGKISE
Procedure: This gives a kon = 2.3 × 10^4 M^−1 s^−1, which is consistent with the kinetics for the lidless SBD of DnaK in binding to its target peptide (kon = 2 × 10^4 M^−1 s^−1 and koff = 12.5 s^−1).
The NMR titration experiments were performed by acquiring a series of 2D ^1H-^15N HSQC spectra of the protein in 50 mM potassium phosphate (pH 7.0), 50 mM KCl and 10 mM DTT at 310 K (37 °C). The NR-peptide (0.075 mM, 0.15 mM, 0.30 mM, 0.60 mM, 1.2 mM, 3.0 mM and 6.0 mM) was titrated into a sample containing 0.3 mM ^15N labeled SBD(∆CDE)-y. Data processing and analysis were performed with NMRPipe and KUJIRA [41], respectively. The dissociation constant, KD, was estimated by fitting Equation (1) to the bound fraction of SBD(∆CDE)-y, fbound: (1) fbound([L]total)=1−I([L]total)/I0=([P]total+[L]total+KD)−([P]total+[L]total+KD)^2−4[P]total[L]total/2[P]total where [L]total and [P]total are the total concentrations of NR-peptide and SBD(∆CDE)-y, respectively, and I and I0 are the signal intensities with and without NR-peptide. Each signal intensity was measured by a similar procedure described in Section 4.3. […] Uncertainties in the dissociation constant was estimated by Monte Carlo simulations on the basis of the uncertainty for each signal intensity evaluated using the root-mean-square deviation value on a spectral region with no signals, which was obtained by the NMRPipe built-in module.

[2] = test system: SBD in Hsp70 with covalently modified E444; conditions: PDB ID: 4WV7; ref [29]; cited from earlier work
From the text: E444 in Hsp70 is accessible by NBD in the apo-form SBD(∆CDE)-y, whereas it is covered by the Lα,β loop and therefore this interaction is hindered in the substrate-bound form (Figure 7a,b). This is consistent with the observation for Q442 in DnaK, as described above.

[3] = molecular target: T2, SBD(∆CDE) (S537C/L542Y) mutant, labelled at residue 537 with MTSL or its diamagnetic analog (human, UniProt P0DMV8 382-564, S537C | L542Y, MTSL nitroxide radical, or the diamagnetic MTSL analog, on C537); test: NMR paramagnetic relaxation enhancement; 2D 1H-15N HSQC of 0.5 mM spin-labelled SBD(∆CDE) (S537C/L542Y) with/without 5.0 mM NR-peptide; 50 mM potassium phosphate pH 7.0, 50 mM KCl, 37 °C; conditions: both partners purified
T2 construct: 15N-labelled for NMR; PDB 5XIR is the parent SBD(∆CDE)-y without S537C; also called SBD(∆CDE)-y harboring a S537C mutation; SBD(∆CDE)-y with spin labeling at residue 537; source: E. coli BL21(DE3), purified (as in Section 4.1), then labelled with MTSL; not shown: His6, N-terminal, cleaved
T2 sequence (P0DMV8 382-564 S537C/L542Y): as the sequence (P0DMV8 382-564 L542Y) above, with S156C counted along it

[4] = molecular target: T3, SBD(∆CDE)-y, substrate-binding domain of human Hsp70 (HSPA1A) lacking αC, αD and αE, with the L542Y mutation (human, UniProt P0DMV8 382-564, L542Y); test: NMR titration; 2D 1H-15N HSQC; NR-peptide (0.075-6.0 mM) titrated into 0.3 mM 15N-labelled SBD(∆CDE)-y; 50 mM potassium phosphate pH 7.0, 50 mM KCl, 10 mM DTT, 37 °C; slow exchange; global fit of signal intensities of 28 residues; conditions: both partners purified
T3 construct: Cloned in pET16b (NdeI/XhoI); 15N- or 13C/15N-labelled for NMR, unlabelled (LB medium) for ITC; also called mutant SBD; apo-form SBD; source: E. coli BL21(DE3), purified (HisTrap FF, Factor Xa cleavage, HiTrap Q FF); not shown: His6, N-terminal, cleaved
T3 sequence (P0DMV8 382-564 L542Y): as the sequence (P0DMV8 382-564 L542Y) above

[5] = molecular target: T3, SBD(∆CDE)-y, substrate-binding domain …; test: ITC; 1.5 μL injections of 5 mM NR-peptide into 200 μL of 0.1 mM SBD(∆CDE)-y; single-site fit with the stoichiometry fixed as n = 1; triplicate; conditions: both partners purified

`CC(C)C[C@H](NC(=O)[C@H](CC(C)C)NC(=O)[C@H](CCCNC(=N)N)NC(=O)[C@@H](N)CC(N)=O)C(=O)N[C@@H](CC(C)C)C(=O)N[C@H](C(=O)NCC(=O)O)[C@@H](C)O` [NR-peptide] showed a kon ([1]; from koff 30 s^−1 and KD = 1.3 mM) of 23000 M⁻¹ s⁻¹ and a koff ([1]; simulation using average R2 rate 21 s^−1 and KD = 1.3 mM, SBD(∆CDE)-y 0.3 mM, peptide 3.0 mM, read-out: maximum koff) of at most 30 s⁻¹.

In the case of `C=CC1=CC[C@H]2[C@@H](C[C@@H](O)[C@@]3(O)[C@@]4(C)C(=O)O[C@H]4CC[C@]23C)[C@H]1C` [novolactone], the “effect of covalent E444 modification on interdomain interactions” value [2] is listed as “sterically blocks the interdomain interactions”.

B1: NR-peptide (peptide)
peptide: NRLLLTG
notes: Model client peptide of Hsp70; also called NRLLLTG; client-peptide
With B1 the binding result [3] was “binds”, the Kd [4] was 1.3 mM and the Kd [5] was 1.5 mM.
